Experimental data as given in ChEMBL document CHEMBL4196175, “First SAR Study for Overriding NRAS Mutant Driven Acute Myeloid Leukemia” (J Med Chem, 2018).
The source made the active and inactive calls. The rule behind the calls is not given here.

Tests used:
[1] = Growth inhibition of parental mouse BA/F3 cells after 72 hrs by celltiter-glo assay; type: cell-based, BaF3
[2] = species: Mus musculus; test: Inhibition of ACK1/GCK in mouse BA/F3 cells assessed as reduction in NRAS-G12D mutant-mediated cell proliferation after 72 hrs by celltiter-glo assay; type: cell-based
[3] = target: Activated CDC42 kinase 1 (Homo sapiens, UniProt Q07912); test: Inhibition of ACK1 (unknown origin) by radiometric biochemical kinase assay
[4] = target: T1, Mitogen-activated protein kinase kinase kinase kinase 2 (Homo sapiens, UniProt Q12851); test: Inhibition of GCK (unknown origin) by radiometric biochemical kinase assay
T1 sequence (Q12851 whole entry): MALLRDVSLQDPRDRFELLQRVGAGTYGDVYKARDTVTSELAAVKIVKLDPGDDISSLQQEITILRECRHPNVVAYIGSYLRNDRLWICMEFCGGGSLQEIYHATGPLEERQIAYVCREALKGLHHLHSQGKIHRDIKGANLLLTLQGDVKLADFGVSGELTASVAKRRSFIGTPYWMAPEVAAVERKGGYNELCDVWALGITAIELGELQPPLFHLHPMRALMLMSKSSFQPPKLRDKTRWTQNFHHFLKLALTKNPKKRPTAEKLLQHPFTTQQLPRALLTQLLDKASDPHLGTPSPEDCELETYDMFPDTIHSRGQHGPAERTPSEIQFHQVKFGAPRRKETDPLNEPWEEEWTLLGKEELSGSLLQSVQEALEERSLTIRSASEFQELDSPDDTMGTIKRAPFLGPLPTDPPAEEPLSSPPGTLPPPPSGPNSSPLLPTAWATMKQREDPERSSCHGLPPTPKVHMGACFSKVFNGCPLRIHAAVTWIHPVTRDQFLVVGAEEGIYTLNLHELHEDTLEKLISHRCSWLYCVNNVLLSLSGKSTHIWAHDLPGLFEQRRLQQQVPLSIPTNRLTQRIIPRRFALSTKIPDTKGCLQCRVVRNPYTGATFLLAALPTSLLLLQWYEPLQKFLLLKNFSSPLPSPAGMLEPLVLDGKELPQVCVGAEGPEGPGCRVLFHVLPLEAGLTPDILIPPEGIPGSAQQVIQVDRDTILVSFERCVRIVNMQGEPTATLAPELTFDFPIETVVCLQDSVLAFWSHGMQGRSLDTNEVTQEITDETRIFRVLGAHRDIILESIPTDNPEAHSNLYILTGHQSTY

[5] = test system: OCI-AML-3; test: Growth inhibition of human OCI-AML3 cells harboring NRAS-Q61L mutant after 72 hrs by celltiter-glo assay; type: functional; settings: OCI-AML-3, 72 h
[6] = test system: OCI-AML-3; test: Growth inhibition of ACK1/GCK knockdown human OCI-AML3 cells harboring NRAS-Q61L mutant at 0.5 uM after 72 hrs by celltiter-glo assay; type: functional, cell-based
[7] = Growth inhibition of parental human U937 cells after 72 hrs by celltiter-glo assay; type: cell-based, U-937
[8] = test system: OCI-AML-3; test: Growth inhibition of ACK1/GCK knockdown human OCI-AML3 cells harboring NRAS-Q61L mutant at 0.2 uM after 72 hrs by celltiter-glo assay; type: functional, cell-based
[9] = target: CYP2D6 (Homo sapiens, UniProt P10635); test: Inhibition of CYP2D6 (unknown origin) assessed as activity remaining at 10 uM relative to control; type: ADME; settings: read-out: Activity
[10] = Metabolic stability in human liver microsomes assessed as compound remaining at 1 uM after 30 mins; type: ADME, microsome; settings: read-out: Stability
[11] = target: T2, CYP1A2 (Homo sapiens, UniProt P05177); test: Inhibition of CYP1A2 (unknown origin) assessed as activity remaining at 10 uM relative to control; type: ADME; settings: read-out: Activity
T2 sequence (P05177 whole entry): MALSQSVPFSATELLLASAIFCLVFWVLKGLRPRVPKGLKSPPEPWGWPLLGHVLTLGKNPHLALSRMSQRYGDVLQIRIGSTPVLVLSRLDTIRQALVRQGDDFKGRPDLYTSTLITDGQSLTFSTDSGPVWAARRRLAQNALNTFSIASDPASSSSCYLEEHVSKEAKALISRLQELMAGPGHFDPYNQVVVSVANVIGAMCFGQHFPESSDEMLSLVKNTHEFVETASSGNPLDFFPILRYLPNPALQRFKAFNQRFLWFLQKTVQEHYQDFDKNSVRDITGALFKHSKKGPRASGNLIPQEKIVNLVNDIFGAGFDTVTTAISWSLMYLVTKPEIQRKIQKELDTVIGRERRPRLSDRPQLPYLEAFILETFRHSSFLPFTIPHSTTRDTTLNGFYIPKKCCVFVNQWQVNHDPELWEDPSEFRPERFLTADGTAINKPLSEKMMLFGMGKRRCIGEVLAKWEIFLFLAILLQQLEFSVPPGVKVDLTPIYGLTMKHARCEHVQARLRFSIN

[12] = Metabolic stability in rat liver microsomes assessed as compound remaining at 1 uM after 30 mins; type: ADME, microsome; settings: read-out: Stability
[13] = Metabolic stability in dog liver microsomes assessed as compound remaining at 1 uM after 30 mins; type: ADME, Canis lupus familiaris, microsome; settings: read-out: Stability
[14] = target: CYP2C9 (Homo sapiens, UniProt P11712); test: Inhibition of CYP2C9 (unknown origin) assessed as activity remaining at 10 uM relative to control; type: ADME; settings: read-out: Activity
[15] = test system: OCI-AML-3; test: Growth inhibition of ACK1/GCK knockdown human OCI-AML3 cells harboring NRAS-Q61L mutant at 0.05 uM after 72 hrs by celltiter-glo assay; type: functional, cell-based
[16] = target: CYP3A4 (Homo sapiens, UniProt P08684); test: Inhibition of CYP3A4 (unknown origin) assessed as activity remaining at 10 uM relative to control; type: ADME; settings: read-out: Activity
[17] = Metabolic stability in mouse liver microsomes assessed as compound remaining at 1 uM after 30 mins; type: ADME, microsome; settings: read-out: Stability

Sequence of Activated CDC42 kinase 1 (Q07912 whole entry): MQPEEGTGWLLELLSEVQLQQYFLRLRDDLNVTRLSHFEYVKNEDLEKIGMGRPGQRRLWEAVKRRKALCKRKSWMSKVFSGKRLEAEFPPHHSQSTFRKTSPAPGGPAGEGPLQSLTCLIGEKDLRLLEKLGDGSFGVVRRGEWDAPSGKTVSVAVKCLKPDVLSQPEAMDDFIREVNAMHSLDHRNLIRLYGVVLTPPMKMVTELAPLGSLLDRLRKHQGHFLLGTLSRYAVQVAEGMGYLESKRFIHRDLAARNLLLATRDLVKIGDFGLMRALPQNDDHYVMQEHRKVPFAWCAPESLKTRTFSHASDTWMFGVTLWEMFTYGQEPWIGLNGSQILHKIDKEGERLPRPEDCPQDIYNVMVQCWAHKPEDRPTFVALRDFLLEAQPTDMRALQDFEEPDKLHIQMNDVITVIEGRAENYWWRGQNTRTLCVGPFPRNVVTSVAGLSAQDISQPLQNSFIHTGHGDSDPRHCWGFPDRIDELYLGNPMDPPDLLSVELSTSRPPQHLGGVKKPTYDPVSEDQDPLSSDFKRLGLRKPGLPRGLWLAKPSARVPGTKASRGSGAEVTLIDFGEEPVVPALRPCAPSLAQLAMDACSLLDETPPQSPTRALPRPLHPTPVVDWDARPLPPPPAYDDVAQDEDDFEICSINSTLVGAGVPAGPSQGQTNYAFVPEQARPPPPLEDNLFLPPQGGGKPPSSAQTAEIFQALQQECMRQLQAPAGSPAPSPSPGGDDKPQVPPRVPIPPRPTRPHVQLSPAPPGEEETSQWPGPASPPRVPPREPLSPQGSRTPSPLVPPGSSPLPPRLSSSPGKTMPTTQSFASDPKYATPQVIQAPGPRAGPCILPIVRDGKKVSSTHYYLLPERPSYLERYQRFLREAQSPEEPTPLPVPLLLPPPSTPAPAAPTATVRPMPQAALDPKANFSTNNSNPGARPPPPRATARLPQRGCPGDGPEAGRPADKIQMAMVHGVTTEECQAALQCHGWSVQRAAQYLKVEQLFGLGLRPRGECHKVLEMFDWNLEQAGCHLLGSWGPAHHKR
Sequence of CYP3A4 (P08684 whole entry): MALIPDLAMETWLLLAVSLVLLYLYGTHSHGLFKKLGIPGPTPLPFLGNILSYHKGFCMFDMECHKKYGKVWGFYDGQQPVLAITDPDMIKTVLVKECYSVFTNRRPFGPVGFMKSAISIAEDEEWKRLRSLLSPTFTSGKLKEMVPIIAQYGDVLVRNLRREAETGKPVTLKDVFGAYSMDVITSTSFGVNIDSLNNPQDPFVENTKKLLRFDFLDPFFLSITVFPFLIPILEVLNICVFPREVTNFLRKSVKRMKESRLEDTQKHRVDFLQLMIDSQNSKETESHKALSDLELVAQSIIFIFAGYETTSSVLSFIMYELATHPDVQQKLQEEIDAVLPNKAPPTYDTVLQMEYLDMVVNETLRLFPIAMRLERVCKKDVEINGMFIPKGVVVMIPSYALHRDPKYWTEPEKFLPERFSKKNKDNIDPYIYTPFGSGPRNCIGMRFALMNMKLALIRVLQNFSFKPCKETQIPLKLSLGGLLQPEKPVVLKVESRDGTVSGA
Sequence of CYP2D6 (P10635 whole entry): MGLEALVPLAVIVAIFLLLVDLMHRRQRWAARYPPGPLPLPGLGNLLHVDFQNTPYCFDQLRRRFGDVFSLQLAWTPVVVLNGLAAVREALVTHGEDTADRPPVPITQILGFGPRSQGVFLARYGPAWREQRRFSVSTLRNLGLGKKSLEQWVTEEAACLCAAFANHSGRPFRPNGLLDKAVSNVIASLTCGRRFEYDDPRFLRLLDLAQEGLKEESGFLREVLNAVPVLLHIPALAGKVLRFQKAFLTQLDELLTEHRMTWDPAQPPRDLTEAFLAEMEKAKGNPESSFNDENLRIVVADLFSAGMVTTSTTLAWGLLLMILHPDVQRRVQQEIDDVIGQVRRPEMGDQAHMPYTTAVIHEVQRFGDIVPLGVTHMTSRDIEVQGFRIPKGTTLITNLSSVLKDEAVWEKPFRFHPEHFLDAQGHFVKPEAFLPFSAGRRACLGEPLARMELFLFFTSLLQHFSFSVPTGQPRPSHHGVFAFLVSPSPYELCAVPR
Sequence of CYP2C9 (P11712 whole entry): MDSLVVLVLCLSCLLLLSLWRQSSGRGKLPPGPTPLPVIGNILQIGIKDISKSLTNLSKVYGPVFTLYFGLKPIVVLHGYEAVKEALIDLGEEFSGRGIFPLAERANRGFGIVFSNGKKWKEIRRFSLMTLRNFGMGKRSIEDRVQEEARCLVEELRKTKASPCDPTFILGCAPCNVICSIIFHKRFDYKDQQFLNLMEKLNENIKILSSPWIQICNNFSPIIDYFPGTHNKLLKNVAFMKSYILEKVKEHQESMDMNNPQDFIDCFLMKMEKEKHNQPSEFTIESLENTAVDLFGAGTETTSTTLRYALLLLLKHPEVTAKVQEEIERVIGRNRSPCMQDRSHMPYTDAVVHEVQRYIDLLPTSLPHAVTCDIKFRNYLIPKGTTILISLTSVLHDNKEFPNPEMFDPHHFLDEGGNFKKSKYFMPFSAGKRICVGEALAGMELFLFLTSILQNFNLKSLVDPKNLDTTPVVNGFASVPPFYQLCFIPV

Compound | GI50 at 72 h [1] | GI50 [2] | IC50 [3] | IC50 [4] | GI50 [5] | growth inhibition (GI) [6] | GI50 at 72 h [7] | growth inhibition (GI) [8] | activity at 10 µM [9] | remaining at 0.5 h, 1 µM [10] | activity at 10 µM [11] | remaining at 0.5 h, 1 µM [12] | remaining at 0.5 h, 1 µM [13] | activity at 10 µM [14] | growth inhibition (GI) [15] | activity at 10 µM [16] | remaining at 0.5 h, 1 µM [17]
Cc1ccc(NC(=O)c2ccc(CN3CCC(N(C)C)C3)c(C(F)(F)F)c2)cc1N1Cc2cnc(Nc3cnn(C)c3)nc2N(C)C1=O (stereo not given) | 414 nM | 68 nM | 25 nM | 8 nM |  |  |  |  |  |  |  |  |  |  |  |  | 
Cc1cc(Nc2ncc3c(n2)N(C)C(=O)N(c2cc(NC(=O)c4ccc(CN5CCC(N(C)C)C5)c(C(F)(F)F)c4)ccc2C)C3)n(C)n1 (stereo not given) | 509 nM | 123 nM | 11 nM | 17 nM |  |  |  |  |  |  |  |  |  |  |  |  | 
Cc1ccc(Nc2ncc3c(n2)N(C)C(=O)N(c2cc(NC(=O)c4ccc(C)c(C(F)(F)F)c4)ccc2C)C3)cn1 | 870 nM | 387 nM | 20 nM | 39 nM | 394 nM | Active | 19400 nM |  |  |  |  |  |  |  |  |  | 
Cc1ccc(NC(=O)c2cccc(C(F)(F)F)c2)cc1N1Cc2cnc(NC3CCCCC3)nc2N(C)C1=O | 5220 nM | 2450 nM | 60 nM | 925 nM |  |  |  |  |  |  |  |  |  |  |  |  | 
Cc1ccc(Nc2ncc3c(n2)N(C)C(=O)N(c2cc(NC(=O)c4ccc(CN5CCN(C)CC5)c(C(F)(F)F)c4)ccc2C)C3)cn1 | 818 nM | 316 nM | 26 nM | 5 nM |  |  |  |  |  |  |  |  |  |  |  |  | 
Cc1ccc(Nc2ncc3c(n2)N(C)C(=O)N(c2cc(NC(=O)c4cc(N5CCC(O)CC5)cc(C(F)(F)F)c4)ccc2C)C3)cn1 | 671 nM | 118 nM | 40 nM | 72 nM | 143 nM |  | 2180 nM | Active |  |  |  |  |  |  |  |  | 
Cc1ccc(NC(=O)c2cccc(C(F)(F)F)c2)cc1N1Cc2cnc(Nc3ccccc3)nc2N(C)C1=O | 1790 nM | 380 nM | 37 nM | 47 nM |  |  |  |  |  |  |  |  |  |  |  |  | 
Cc1ccc(Nc2ncc3c(n2)N(C)C(=O)N(c2cc(NC(=O)c4cc(N5CCOCC5)cc(C(F)(F)F)c4)ccc2C)C3)cn1 | 1650 nM | 284 nM | 26 nM | 45 nM | 260 nM |  | 2800 nM | Active |  |  |  |  |  |  |  |  | 
Cc1ccc(Nc2ncc3c(n2)N(C)C(=O)N(c2cc(NC(=O)c4ccc(N5CCN(C)CC5)c(C(F)(F)F)c4)ccc2C)C3)cn1 | 685 nM | 341 nM | 28 nM | 10 nM |  |  |  |  |  |  |  |  |  |  |  |  | 
Cc1ccc(Nc2ncc3c(n2)N(C)C(=O)N(c2cc(NC(=O)c4ccccc4)ccc2C)C3)cn1 | 2700 nM | 1470 nM | 21 nM | 1080 nM |  |  |  |  |  |  |  |  |  |  |  |  | 
CCN1CCN(c2ccc(Nc3ncc4c(n3)N(C)C(=O)N(c3cc(NC(=O)c5cccc(C(F)(F)F)c5)ccc3C)C4)cn2)CC1 | 264 nM | 71 nM | 28 nM | 7 nM | 30 nM |  | 1410 nM |  | 68% | 29.8% | 89.7% | 19.2% | 21.4% | 23% | Active | > 100% | 21.2%
Cc1ccc(NC(=O)c2cccc(C(F)(F)F)c2)cc1N1Cc2cnc(Nc3cnn(C)c3)nc2N(C)C1=O | 352 nM | 100 nM | 20 nM | 6 nM | 42 nM |  | 1120 nM |  | 78.8% | 78.8% | 88% | 98.4% | 71.3% | 42.9% | Active | > 100% | 73.3%
Cc1ccc(Nc2ncc3c(n2)N(C)C(=O)N(c2cc(NC(=O)c4cc(-n5cnc(C)c5)cc(C(F)(F)F)c4)ccc2C)C3)cn1 | > 5000 nM | 238 nM | 53 nM | 27 nM |  |  |  |  |  |  |  |  |  |  |  |  | 
Cc1ccc(NC(=O)c2cccc(C(F)(F)F)c2)cc1N1Cc2cnc(NC3CC3)nc2N(C)C1=O | 5060 nM | 547 nM | 35 nM | 42 nM |  |  |  |  |  |  |  |  |  |  |  |  | 
CC(=O)N1CCN(c2ccc(Nc3ncc4c(n3)N(C)C(=O)N(c3cc(NC(=O)c5ccc(CN6CCC(N(C)C)C6)c(C(F)(F)F)c5)ccc3C)C4)cn2)CC1 (stereo not given) | 187 nM | 41 nM | 25 nM | 16 nM |  |  |  |  |  |  |  |  |  |  |  |  | 
CCN1CCN(C(=O)c2ccc(Nc3ncc4c(n3)N(C)C(=O)N(c3cc(NC(=O)c5ccc(CN6CCC(N(C)C)C6)c(C(F)(F)F)c5)ccc3C)C4)cn2)CC1 (stereo not given) | 704 nM | 94 nM | 21 nM | 14 nM |  |  |  |  |  |  |  |  |  |  |  |  | 
CCN1CCN(c2ccc(Nc3ncc4c(n3)N(C)C(=O)N(c3cc(NC(=O)c5cccc(C(F)(F)F)c5)ccc3C)C4)cc2)CC1 | 559 nM | 83 nM | 20 nM | 8 nM | 40 nM |  | 839 nM |  | 79.8% | 46.7% | 92.1% | 19.7% | 21.3% | 34.3% | Active | > 100% | 20.9%
